Test results as given in ChEMBL document CHEMBL1275395, “Endoperoxide carbonyl falcipain 2/3 inhibitor hybrids: toward combination chemotherapy of malaria through a single chemical entity” (J Med Chem, 2010).
pIC50: −log10 of the molar value. *1 amine or outer side, *2 acyl side, *3 side chain or, on linkers, in order; H or OH if unused. Where a SMILES comes first, the peptide text is derived from it. [ ]: non-standard residue; d: D form. The star is where a group is joined. hPhe = N[C@@H](CCc1ccccc1)C(=O)O; Morpholide = C1CN(*)CCO1; Cbz = O=C(OCc1ccccc1)*; CO = O=C([*:1])[*:2]

What was measured:
Plasmodium falciparum = experiment: Antimalarial activity against Plasmodium falciparum 3D7 infected in human erythrocytes after 4 hrs; type: functional, organism-based; conditions: 3D7, 4 h
[1] = Inhibition of Plasmodium falciparum recombinant falcipain-3
[2] = Inhibition of Plasmodium falciparum recombinant falcipain-2

Row | SMILES | pIC50 (Plasmodium falciparum) | pIC50 [1] | pIC50 [2]
1 | CCOCC(=O)[C@H](Cc1ccccc1)NC(=O)[C@H](CC(C)C)NC(=O)OCc1ccccc1 | < 5.00 | 4.67 | 5.71
2 | COCC(=O)[C@H](Cc1ccccc1)NC(=O)[C@H](CC(C)C)NC(=O)OCc1ccccc1 | < 5.00 | 5.06 | 5.71
3 | CC(C)C[C@H](NC(=O)OCc1ccccc1)C(=O)N[C@H](C=O)CCc1ccccc1 (Cbz-Leu-[hPhe]-aldehyde) | 7.57 | 6.70 | 8.85
4 | CCOC[C@@]1([C@@H](NC(=O)[C@H](CC(C)C)NC(=O)OCc2ccccc2)c2ccccc2)OOC2(O1)C1CC3CC(C1)CC2C3 (stereo partly drawn) | – | < 4.60 | > 5.07
5 | CC(C)C[C@@H](C(=O)N[C@@H](CCc1ccccc1)[C@H]1OOC2(O1)C1CC3CC(C1)CC2C3)N1CCOCC1 (stereo partly drawn) | 7.45 | 6.48 | 6.29
6 | CC(C)C[C@H](NC(=O)N1CCOCC1)C(=O)N[C@H](C=O)CCc1ccccc1 ({Morpholide-CO}-Leu-[hPhe]-aldehyde) | 8.03 | 6.67 | 7.79
7 | CCOCC(=O)[C@H](CCc1ccccc1)NC(=O)[C@H](CC(C)C)NC(=O)OCc1ccccc1 | < 5.00 | 6.07 | 5.69
8 | COC[C@@]1([C@H](CCc2ccccc2)NC(=O)[C@H](CC(C)C)NC(=O)OCc2ccccc2)OOC2(O1)C1CC3CC(C1)CC2C3 (stereo partly drawn) | 6.24 | > 4.70 | > 4.94
9 | CC(C)C[C@H](NC(=O)OCc1ccccc1)C(=O)N[C@@H](CCc1ccccc1)C(=O)COc1ccccc1 | 6.51 | 6.65 | 6.36
10 | CCOC[C@@]1([C@H](CCc2ccccc2)NC(=O)[C@H](CC(C)C)NC(=O)OCc2ccccc2)OOC2(O1)C1CC3CC(C1)CC2C3 (stereo partly drawn) | 6.24 | > 4.62 | > 5.06
11 | COCC(=O)[C@H](CCc1ccccc1)NC(=O)[C@H](CC(C)C)NC(=O)OCc1ccccc1 | < 5.00 | 5.25 | 5.15
12 | COC[C@@]1([C@@H](NC(=O)[C@H](CC(C)C)NC(=O)OCc2ccccc2)c2ccccc2)OOC2(O1)C1CC3CC(C1)CC2C3 (stereo partly drawn) | 5.59 | 4.36 | 5.92
13 | CC(C)C[C@H](NC(=O)OCc1ccccc1)C(=O)N[C@@H](CCc1ccccc1)[C@H]1OOC2(O1)C1CC3CC(C1)CC2C3 (stereo partly drawn) | 7.26 | 6.02 | 6.37
